Measurements published in publication PMC7099204, “Geranylated Coumarins From Thai Medicinal Plant Mammea siamensis With Testosterone 5α-Reductase Inhibitory Activity” (Frontiers in Chemistry, 2020).
Where two headings read alike, the source gives them in different places.

Target: T1, testosterone 5α-reductase (Rattus norvegicus, UniProt P24008)
T1 sequence (P24008 1-259): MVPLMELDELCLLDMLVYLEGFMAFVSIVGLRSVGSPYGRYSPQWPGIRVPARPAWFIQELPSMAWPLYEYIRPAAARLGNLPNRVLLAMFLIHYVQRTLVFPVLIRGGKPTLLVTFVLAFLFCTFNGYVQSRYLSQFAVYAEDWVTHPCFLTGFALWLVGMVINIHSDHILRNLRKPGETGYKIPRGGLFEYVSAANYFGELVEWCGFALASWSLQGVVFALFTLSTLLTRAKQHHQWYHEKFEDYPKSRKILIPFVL
Assay: Assay for testosterone 5α-reductase inhibitory activity (rat liver S9 fractions, HPLC of remaining testosterone)
Assay type: biochemical
Description: The experiment was performed in accordance with previously reported methods (Matsuda et al., [2001]; Lee et al., [2012]; Koseki et al., [2015]) with slight modifications. In brief, the assay was performed in 48-well microplates (Sumitomo Bakelite Co., Ltd., Tokyo, Japan). The reaction solution was pre-incubated with or without a test sample (5 μL/well, dissolved in DMSO), in a potassium phosphate buffer (40 mM, pH 6.5, 490 μL/well) containing substrate (0.35 nmol of testosterone, Tokyo Chemical Industry Co., Ltd., Tokyo, Japan) and NADPH (10 nmol, Oriental Yeast Co., Ltd., Tokyo, Japan) at room temperature (25°C) for 20 min. The enzymatic reaction was initiated by the addition of rat liver S9 fractions (10 μL/well, dissolved in the phosphate buffer, 20.6 μg/well, Oriental Yeast Co., Ltd., Tokyo, Japan, lot no. 109031513) at 37°C for 30 min. After incubation, the reaction mixture was immediately heated in boiling water for 2 min to stop the reaction. Then the reaction solution of each well was transferred to a microtube and extracted with 500 μL of EtOAc. After the microtube was centrifuged (10,000 rpm, 5 min), an aliquot of each EtOAc phase (300 μL) was transferred into another tube. The solvent in the tube was evaporated and the residue was dissolved in 30 μL of acetonitrile containing an internal standard (I.S.) fludrocortisone acetate (20 μg/mL, Sigma-Aldrich, Co., LLC, St. Louis, USA). […] The 5α-reductase inhibitory activity was determined from the following equation using the peak area ratios (r = testosterone/I.S.). Experiments were performed in triplicate or quadruple, and IC50 values were determined graphically. The 5α-reductase inhibitor finasteride (Tokyo Chemical Industry Co., Ltd., Tokyo, Japan) was used as a reference compound.
Inhibition(%)=[r(T)-r(C)/r(B)-r(C)]× 100
Control (C): enzyme (+), test sample (–); Test (T): enzyme (+), test sample (+); Blank (B): enzyme (–), test sample (+).

[1] = 100 μM, mean ± S.E.M. (N = 3–4), read-out: Inhibition (%)
[2] = 3 μM, mean ± S.E.M. (N = 3–4), read-out: Inhibition (%)
[3] = 10 μM, mean ± S.E.M. (N = 3–4), read-out: Inhibition (%)
[4] = 30 μM, mean ± S.E.M. (N = 3–4), read-out: Inhibition (%)

Structure (SMILES)	inhibition at 100 µM [1] [%]	inhibition at 3 µM [2] [%]	inhibition at 10 µM [3] [%]	inhibition at 30 µM [4] [%]	also measured
CCC(C)C(=O)c1c(O)c(C/C=C(\C)CCC=C(C)C)c(O)c2c([C@@H](O)CC)cc(=O)oc12 (some centres unmarked) [Compound 13, surangin C]	124 ± 9.6	28.2 ± 7.7	63.6 ± 8.3	114 ± 6.7	
CC[C@H](O)c1cc(=O)oc2c(CC=C(C)C)c(O)c(C(=O)CC(C)C)c(O)c12 [Compound 11, Kayeassamin G]	62.3 ± 3.2	14.4 ± 9.7	37.5 ± 6.9	61.3 ± 3	
CCCC(=O)c1c(O)c(C/C=C(\C)CCC=C(C)C)c2c3c(cc(=O)oc13)CC(C)O2 (centres unmarked) [Compound 7, Mammeasin D]	16.4 ± 5.8				
CCCC(=O)c1c(O)c(C/C=C(\C)CCC=C(C)C)c(O)c2c([C@H](CC)OC(C)=O)cc(=O)oc12 [Compound 4, Mammeasin A]	129 ± 20.9	12.6 ± 10.5	40.8 ± 12.8	53.1 ± 5.2	
CC(C)(C)NC(=O)[C@H]1CC[C@H]2[C@@H]3CC[C@H]4NC(=O)C=C[C@]4(C)[C@H]3CC[C@]12C [Finasteride, finasteride, reference compound]					inhibition at 0.1 µM: 48.5 ± 10.9%; inhibition at 0.3 µM: 61.8 ± 11.4%; inhibition at 1 µM: 76 ± 9.8%; inhibition at 3 µM: 91.3 ± 13.1%
CCC(C)C(=O)c1c(O)c(C/C=C(\C)CCC=C(C)C)c(O)c2c([C@H](CC)OC(C)=O)cc(=O)oc12 (some centres unmarked) [Compound 12, surangin B]	38.5 ± 5				
CCCC(=O)c1c(O)c2c(c3c([C@@H](O)CC)cc(=O)oc13)OC(C)(CCC=C(C)C)C=C2 (some centres unmarked) [Compound 1, kayeassamin I]	37.5 ± 11.1				
CCC(C)C(=O)c1c(O)c2c(c3c([C@@H](O)CC)cc(=O)oc13)OC(C)(CCC=C(C)C)C=C2 (some centres unmarked) [Compound 3, Mammeasin F]	14.9 ± 5.4				
CC[C@H](OC(C)=O)c1cc(=O)oc2c(C(=O)CC(C)C)c(O)c(C/C=C(\C)CCC=C(C)C)c(O)c12 [Compound 5, Mammeasin B]	83.7 ± 4.3	35.3 ± 6.1	39.9 ± 4.2	58.8 ± 9.6	
CC[C@H](O)c1cc(=O)oc2c(C(=O)CC(C)C)c(O)c3c(c12)OC(C)(CCC=C(C)C)C=C3 (some centres unmarked) [Compound 2, Mammeasin E]	89.5 ± 15.8	20 ± 9.2	30.9 ± 9.3	53.9 ± 12.7	
CCCC(=O)c1c(O)c(C/C=C(\C)CCC=C(C)C)c(O)c2c([C@@H](O)CC)cc(=O)oc12 [Compound 8, kayeassamin A]	20.2 ± 7.9				
CC(C)=CCc1c(O)c(C(=O)CC(C)C)c(O)c2c(-c3ccccc3)cc(=O)oc12 [Compound 17, Mammea A/AA]					inhibition at 3 µM: 18.9 ± 7%; inhibition at 10 µM: 32 ± 3.9%; inhibition at 30 µM: 62 ± 2.8%; inhibition at 100 µM: 92.9 ± 5.3%
CC(C)=CCC/C(C)=C/Cc1c(O)c(C(=O)C(C)C)c2oc(=O)cc3c2c1OC(C)C3 (centres unmarked) [Compound 6, Mammeasin C]	52.9 ± 22.5	3.4 ± 13.1	8.8 ± 10	17.9 ± 10.6	
CCC(C)C(=O)c1c(O)c(CC=C(C)C)c2oc(=O)cc([C@@H](O)CC)c2c1O (some centres unmarked) [Compound 10, Kayeassamin F]	94.6 ± 1.3	4.6 ± 1.1	41 ± 6.4	68.6 ± 3.9	
CCCC(=O)c1c(O)c(CC=C(C)C)c2oc(=O)cc([C@@H](O)CC)c2c1O [Compound 9, Kayeassamin E]	79.9 ± 12.7	2.6 ± 7.1	11.5 ± 12.7	51.1 ± 12.4	

Further lines, with some results ahead:

inhibition at 100 µM [1] [%]	inhibition at 3 µM [2] [%]	inhibition at 10 µM [3] [%]	inhibition at 30 µM [4] [%]	Structure (SMILES)	also measured
37.1 ± 4				CC[C@H](O)c1cc(=O)oc2c3c(c(C(=O)CC(C)C)c(O)c12)OC(C)(C)C=C3 [Compound 31, deacetylmammea E/AA cyclo D]	
32 ± 1.9				CCCC(=O)c1c2c(c3oc(=O)cc(-c4ccccc4)c3c1O)C=CC(C)(C)O2 [Compound 26, Mammea A/AC cyclo D]	
23.3 ± 7.2				CCC(C)C(=O)c1c(O)c(CC=C(C)C)c2oc(=O)cc(-c3ccccc3)c2c1O (centres unmarked) [Compound 18, mammea A/AB]	
31.9 ± 8.8				CCC(C)C(=O)c1c(O)c2c(c3c([C@@H](O)CC)cc(=O)oc13)OC(C)(C)C=C2 (some centres unmarked) [Compound 32, deacetylmammea E/BB cyclo D]	
27.3 ± 2				CCCC(=O)c1c2c(c3oc(=O)cc(CCC)c3c1O)C=CC(C)(C)O2 [Compound 28, Mammea B/AC cyclo D]	
57 ± 15.7	13.8 ± 6.7	21.6 ± 10.3	62.8 ± 18.1	CC(C)CC(=O)c1c2c(c3oc(=O)cc(-c4ccccc4)c3c1O)CC(C(C)(C)O)O2 (centres unmarked) [Compound 34, mammea A/AA cyclo F]	
54.8 ± 23.2	4.2 ± 6.1	18.4 ± 6.9	32.5 ± 6	CCCC(=O)c1c2c(c3oc(=O)cc(-c4ccccc4)c3c1O)CC(C(C)(C)O)O2 (centres unmarked) [Compound 35, mammea A/AC cyclo F]	
6.7 ± 4.5				CCC(C)C(=O)c1c2c(c3oc(=O)cc(-c4ccccc4)c3c1O)C=CC(C)(C)O2 (centres unmarked) [Compound 25, Mammea A/AB cyclo D]	
40.7 ± 18.1				CCCc1cc(=O)oc2c3c(c(C(=O)C(C)CC)c(O)c12)OC(C)(C)C=C3 (centres unmarked) [Compound 27, Mammea B/AB cyclo D]	
41.5 ± 11.4				CCCC(=O)c1c(O)c(CC=C(C)C)c2oc(=O)cc(-c3ccccc3)c2c1O [Compound 19, Mammea A/AC]	
31.9 ± 3.9				CCCC(=O)c1c(O)c2c(c3c(C(CC)OC(C)=O)cc(=O)oc13)OC(C)(C)C=C2 (centres unmarked) [Compound 29, Mammea E/BC cyclo D]	
30.3 ± 2.1				CC(C)=CCc1c(O)c(C(=O)C(C)C)c(O)c2c(-c3ccccc3)cc(=O)oc12 [Compound 20, Mammea A/AD]	
40.8 ± 4.1				CCCC(=O)c1c(O)c2c(c3c([C@@H](O)CC)cc(=O)oc13)OC(C)(C)C=C2 [Compound 33, deacetylmammea E/BC cyclo D]	
38.3 ± 3.8				CC(C)CC(=O)c1c2c(c3oc(=O)cc(-c4ccccc4)c3c1O)C=CC(C)(C)O2 [Compound 24, Mammea A/AA cyclo D]	
